Results on 11 compounds are retold here after patent US20240279228A1, “NOVEL SALTS AND CRYSTALS” (INTRA-CELLULAR THERAPIES, INC., priority 2021, published 2024).

Structures are written as SMILES. Structures can show the parent of a compound that is named as a salt. Where two headings read alike, the source gives them in different places.

Series [1] in a line: Colour and chemical stability of the solid salt in air. The class given is physicochemical. Conditions: for Colorization: tosylate salt product of process experiment.
Series [2] in a line: Solubility of Compound A free base in solvents. The class given is physicochemical.
A short description of series [3]: Hygroscopicity of Compound A free base. The class given is physicochemical.
Series [4] in a line: Decomposition of salt crystals by NMR. The class given is physicochemical. Conditions: crystals from salt screening. As for the experimental part: Further experiments are performed using some of the successful acid/solvent/method conditions from Example 1, with variations in the solvent volume and/or material concentrations and/or changes to the molar ratio of Compound A free base to acid (1:1.2, 1:1.5 or 1:2). Some experiments are further repeated at a 500 mg scale for confirmation of the results, including additional analysis, including 1H-NMR, DSC/TGA, and/or FTIR.

A short description of series [5]: Solubility of the salts in water. The settings on record: salt. The class given is physicochemical.
The conditions of series [6]: solid tosylate salt of WO2020/131895, on standing; cited from earlier work.

Usually solubility stands for how much of the substance goes into solution per volume.

Take `O=C1CN2c3c(cccc3[C@@H]3CN(CCCOc4ccc(F)cc4)CC[C@@H]32)N1` [Compound 3-2]: the Colorization result in series [1] was “Yes”.

With `O=C1CN2c3c(cccc3[C@@H]3CN(CCCOc4ccc(F)cc4)CC[C@@H]32)N1` [Compound 5-1], the Colorization result in series [1] is recorded as “No”.

Take `O=C1CN2c3c(cccc3[C@@H]3CN(CCCOc4ccc(F)cc4)CC[C@@H]32)N1` [Compound 5-2]: the Colorization entry in series [1] is on record as “No”.

On to `O=C1CN2c3c(cccc3[C@@H]3CN(CCCOc4ccc(F)cc4)CC[C@@H]32)N1` [Compound 5-3], for which, in series [1], the Colorization result is reported as “No”.

On to `O=C1CN2c3c(cccc3[C@@H]3CN(CCCOc4ccc(F)cc4)CC[C@@H]32)N1` [Compound 5-4], for which the Colorization result in series [1] was “No”.

As to `O=C1CN2c3c(cccc3[C@@H]3CN(CCCOc4ccc(F)cc4)CC[C@@H]32)N1` [Compound 5-5], the Colorization result in series [1] was “Slight”.

On to `O=C1CN2c3c(cccc3[C@@H]3CN(CCCOc4ccc(F)cc4)CC[C@@H]32)N1` [Compound A, (6bR,10aS)-8-(3-(4-fluorophenoxy)propyl)-6b,7,8,9,10,10a-hexahydro-1H-pyrido[3′,4′:4,5]pyrrolo[1,2,3-de]quinoxalin-2(3H)-one], for which, in series [2] (free base form), the “Solubility (general)” value was “very poor solubility”. For the same compound, in series [2] (free base, DMSO), the “Solubility in DMSO” value is “freely soluble”. For the same compound, the Solubility in anisole entry in series [2] (free base, anisole) is recorded as “sparingly soluble”. Further, the “Solubility in ethyl salicylate” value in series [2] (free base, ethyl salicylate) is recorded as “sparingly soluble”. The “Solubility in most organic solvents and water” value in series [2] (free base, most organic solvents and water) is “less than sparingly soluble”. Also, the solubility was under 11 mg/mL in series [2] (free base, water, read-out: Solubility in water); under 11 mg/mL in series [2] (organic solvent or mixture, free base, 2-butanol, read-out: Solubility in 2-butanol); under 11 mg/mL in series [2] (organic solvent or mixture, free base, cyclohexane, read-out: Solubility in cyclohexane); under 11 mg/mL in series [2] (organic solvent or mixture, free base, ethyl acetate, read-out: Solubility in ethyl acetate); under 11 mg/mL in series [2] (organic solvent or mixture, free base, heptane, read-out: Solubility in heptane); under 11 mg/mL in series [2] (organic solvent or mixture, free base, methanol, read-out: Solubility in methanol). Further, in series [3], the Hygroscopicity result is on record as “slightly hygroscopic”.

As for `O=C1CN2c3c(cccc3[C@@H]3CN(CCCOc4ccc(F)cc4)CC[C@@H]32)N1` [Example 3], in series [1] (at room temperature), the “Colour change of the powder” value is “slowly turns purple”.

`O=C1CN2c3c(cccc3[C@@H]3CN(CCCOc4ccc(F)cc4)CC[C@@H]32)N1` [hydrochloride crystals]: the “Decomposition by NMR” value in series [4] was “show decomposition”.

With `O=C1CN2c3c(cccc3[C@@H]3CN(CCCOc4ccc(F)cc4)CC[C@@H]32)N1` [oxalate salt], the Solubility in water in series [5] is 0.2 to 0.3 mg/mL.

For the compound `O=C1CN2c3c(cccc3[C@@H]3CN(CCCOc4ccc(F)cc4)CC[C@@H]32)N1` [tosylate salt], the Solubility in water in series [5] was 1.2 to 1.7 mg/mL. Also, the Discoloration on standing entry in series [6] was “discolors on standing”.
